Results on one molecule are retold here after ChEMBL document CHEMBL2390876, “Synthesis and evaluation of 4,5-dihydro-5-methylisoxazolin-5-carboxamide derivatives as VLA-4 antagonists” (Bioorg Med Chem Lett, 2013).

Series [1] is described as follows: in vitro. The following applies: mouse, liver microsomes.
A short description of series [2]: in vitro. The conditions noted are these: human, liver microsomes. For orientation: Liver microsomes are a subcellular fraction often used to study metabolism.
Series [3] in a line: in vitro. The following applies: rat, liver microsomes.

In the case of `CC(C1=NOC(C)(C(=O)N[C@@H](Cc2ccc(NC(=O)c3c(Cl)cccc3Cl)cc2)C(=O)O)C1)c1ccccc1` (stereo partly drawn), the amount remaining (commonly what is left of the initial amount, in per cent) at 0.5 h in the series “in vitro [1]” was 99%; in “in vitro [2]”, 95%; in the series “in vitro [3]”, 84.5%.
